Results on two molecules are retold here after patent publication US8252833B2, “Benzo (f) isoindol-2-ylphenyl acetic acid derivatives as EP4 receptor agonists” (Glaxo Group Limited, priority 2006, dated 2012).

Data set [1] concerns FCA induced hypersensitivity. The experiment in a line: FCA induced hypersensitivity in the rat, weight-bearing readout. The data set is classed as in vivo. As to conditions: for Effect of low dose when administered alone: low (ED20) doses alone, p.o. (FIG. 1); for ED20 dose: p.o., reversal of FCA induced hypersensitivity. As to the method: • At the start of the study, naïve weight bearing readings were taken. The hypersensitivity to pain was measured using the Rat incapacitance tester (Linton instruments). • All male rats (RH strain, 180-220 g) then received an intraplantar injection of 100 ul of FCA (Freund's complete adjuvant) into the left hind paw. The ECA was sonicated for 15 minutes prior to use. • 24 hours after administration of the FCA, pre-dose weight bearing readings were taken. All animals were then ranked and randomised for dosing according to their FCA window (predose difference in grams—naïve difference in grams). Rats with FCA window less than 30 were excluded from the study. • Animals were then dosed orally according to ranking and randomisation. Two studies were carried out as follows: • In the first study the ED20 doses of Example 9 and paracetamol were combined using the following protocol, • (1) Vehicle (1% methylcellulose) p.o. • (2) Paracetamol (60 mg/kg) p.o.* • (3) Example 9 (0.1 mg/kg) p.o.* • (4) Example 9 (0.1 mg/kg)+Paracetamol (60 mg/kg) p.o.** • (5) Celecoxib (10 mg/kg) p.o. • *ED20 dose • **Example 9 was dosed initially followed by paracetamol 30 minutes later. • In the second study a fixed dose ratio combination with Example 9 and paracetamol was completed using the following protocol, • (1) Vehicle (1% methylcellulose) p.o.+Vehicle (1% methylcellulose) p.o. • (2) Example 9, 0.003 mg/kg p.o.+Paracetamol, 1.8 mg/kg p.o. • (3) Example 9, 0.01 mg/kg p.o.+Paracetamol, 6 mg/kg p.o. • (4) Example 9, 0.03 mg/kg p.o.+Paracetamol, 18 mg/kg p.o. • (5) Example 9, 0.1 mg/kg p.o.+Paracetamol, 60 mg/kg p.o. • (6) Vehicle (1% methylcellulose) p.o.+Celecoxib, 10 mg/kg p.o. • Animals were assessed in the weight bearing apparatus 1 hour after the dose of paracetamol. • The study was blind and randomised by FCA window using a Latin square method. Preparation Details • All compounds were ground using a pestle and mortar prior to adding the vehicle (1% methylcellulose). Dose volume 5 ml/kg. • All doses were sonicated and stirred before administration. • In this study a positive control was also tested (Celecoxib). […] Statistical Analysis • % reversals were calculated by using the naïve, pre-dose and post dose values as follows: % Reversal=[(Pre-dose−Post-dose)/(Pre-dose−Naïve)]×100. • Graphs and ED50 values were calculated using Prism3. • Statistical analysis was carried out using ANOVA and Fischer LSD test from statistical package Statistica 6. • Synergy was statistically calculated using the synergy macro. The logED50 values and the Standard errors for the individual molecules and the combination study are obtained from Statistica 6 and put into the macro. The fixed dose ratio is specified and the macro then calculates whether the combination was statistically synergistic. It compares the combination data to the theoretical addition of the individual compounds. Results: Percentage Reversal of the Established FCA-Induced Hypersensitivity: […]

A short description of data set [2]: Oral pharmacokinetics in the rat. The following applies: in vivo, read-out: oral pharmacokinetic half life (converted).
Data set [3] concerns the target T1, recombinant human prostanoid EP4 receptor (Homo sapiens, UniProt P35408).
T1 construct: expressed in transfected cells; host or cells: HEK-293(T) cells (HEK-EP4, G418 selected)
Briefly: In vitro cAMP assay in HEK-EP4 cells. The data set is classed as cell-based. Background: Changes in cAMP serve as a functional read-out for many G protein-coupled receptors.
Procedure: Cells were grown as a monolayer culture in DMEM-F12/F12 containing glutamax II (Gibco) and supplemented with 10% foetal bovine serum (Gibco) and 0.4 mg.ml-1 G418. HEK-EP4 cells were pre-treated 24 hr and 30 mins prior to the experiment with 10 μM indomethacin and harvested using Versene containing 10 μM indomethacin. The cells were resuspended in assay buffer (DMEM:F12, 10 μM indomethacin and 200 μM IBMX) at 1×10^6 cells per ml and incubated for 20 min at 37° C. Thereafter, 50 μl of cells were added to 50 μl agonist (compound of Formula (I)) and incubated at 37° C. for 4 minutes before stopping reactions with 1000 of 1% triton X-100. cAMP levels in the cell lysates were determined using a competition binding assay. In this assay the ability of cell lysates to inhibit 3H-cAMP (Amersham) binding to the binding subunit of protein kinase A was measured and cAMP levels were calculated from a standard curve. The data for each compound were expressed as a % of the response to a 10 nM maximal concentration of the standard agonist PGE2. For each compound the maximal response and concentration of compound causing 50% of its maximal response were calculated. Intrinsic activity is expressed relative to the maximal response to PGE2. Unless stated, reagents were purchased commercially from Sigma.

Usually EC50 stands for the midpoint of the concentration-response curve. As a reminder, the half-life is the time in which the quantity being followed falls by half.

T1 sequence (P35408 whole entry): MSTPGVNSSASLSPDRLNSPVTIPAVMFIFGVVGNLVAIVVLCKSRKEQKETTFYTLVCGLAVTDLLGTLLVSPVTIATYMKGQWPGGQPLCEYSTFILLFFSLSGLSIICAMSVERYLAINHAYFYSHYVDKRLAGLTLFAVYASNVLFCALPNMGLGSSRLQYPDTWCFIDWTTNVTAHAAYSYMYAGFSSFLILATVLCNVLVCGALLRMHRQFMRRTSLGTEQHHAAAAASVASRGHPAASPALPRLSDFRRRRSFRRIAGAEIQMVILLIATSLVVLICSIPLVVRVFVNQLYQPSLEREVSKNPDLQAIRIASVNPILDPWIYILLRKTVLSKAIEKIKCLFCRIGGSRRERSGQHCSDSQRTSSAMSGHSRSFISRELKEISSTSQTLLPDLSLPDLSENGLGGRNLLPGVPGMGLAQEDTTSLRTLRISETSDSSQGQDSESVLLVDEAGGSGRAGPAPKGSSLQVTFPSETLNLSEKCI

Consider `CCOc1c2c(c(OCC)c3ccccc13)C(=O)N(c1ccc(CC(=O)O)c(F)c1)C2` [Example 9, {4-[4,9-Bis(ethyloxy)-1-oxo-1,3-dihydro-2H-benzo[f]isoindol-2-yl]-2-fluorophenyl}acetic acid], for which the concentration giving a half-maximal response (EC50) at 3 mg/kg in data set [1] (Rattus norvegicus) came to 600 nM. For the same molecule, the “reversal of eFCA-induced hypersensitivity” value in data set [1] (dosed alone at 3 mg/kg, rat) is reported as 80%. The “Effect of low dose when administered alone” value in data set [1] is “ineffective”. In data set [1] (rat), the ED20 dose came out at 0.1 mg/kg. Moreover, the half-life in data set [2] is 7.6 h. For the same molecule, the 50% effective concentration (EC50) in data set [3] was 39.8 nM. The Emax in data set [3] (maximal response relative to the maximal response to PGE2 (10 nM), read-out: average intrinsic activity) is 68%.

As for `CC(=O)Nc1ccc(O)cc1` [Paracetamol, paracetamol, reference compound], in data set [1], the “Effect of low dose when administered alone” value was “ineffective”. The ED20 dose in data set [1] (rat) came out at 60 mg/kg.
